± gives the expanded uncertainty stated by the source.
Assay: mn = molality of the nth substance listed, in mol/kg
Conditions: 84.5 kPa, Liquid; for speed of sound: Frequency=3 MHz, Sing-around technique in a fixed-path interferometer; for mass density: Vibrating tube method

`O=C(CO)[C@@H](O)[C@H](O)[C@H](O)CO` [D-fructose] + O gave a speed of sound (288.15 K, m1 = 0.1716) of 1478.9 ± 1.2 m/s, a speed of sound (288.15 K, m1 = 0.2312) of 1483.2 ± 1.2 m/s and a speed of sound (288.15 K, m1 = 0.292) of 1487.5 ± 1.2 m/s. The speed of sound (288.15 K, m1 = 0.4825) was 1500.9 ± 1.2 m/s, the speed of sound (288.15 K, m1 = 0.6161) was 1510.2 ± 1.2 m/s and the speed of sound (288.15 K, m1 = 0.9787) was 1534.7 ± 1.2 m/s. For the same compound, the speed of sound (288.15 K, m1 = 1.386) was 1561.6 ± 1.3 m/s, the speed of sound (288.15 K, m1 = 1.851) was 1588.9 ± 1.3 m/s and the speed of sound (288.15 K, m1 = 2.379) was 1622.1 ± 1.3 m/s. It also gave a speed of sound (288.15 K, m1 = 2.981) of 1655.5 ± 1.3 m/s, a speed of sound (288.15 K, m1 = 3.667) of 1691 ± 1.4 m/s and a mass density (288.15 K, m1 = 0.2312) of 1015.03 ± 0.3 kg/m3. The mass density (288.15 K, m1 = 0.292) was 1019.08 ± 0.3 kg/m3, the mass density (288.15 K, m1 = 0.4825) was 1031.39 ± 0.3 kg/m3 and the mass density (288.15 K, m1 = 0.6161) was 1039.7 ± 0.3 kg/m3. The mass density (288.15 K, m1 = 0.9787) was 1061.06 ± 0.31 kg/m3, the mass density (288.15 K, m1 = 1.386) was 1083.13 ± 0.31 kg/m3 and the mass density (288.15 K, m1 = 1.851) was 1106.02 ± 0.32 kg/m3. The mass density (288.15 K, m1 = 2.379) was 1129.63 ± 0.32 kg/m3, the mass density (288.15 K, m1 = 2.981) was 1153.68 ± 0.33 kg/m3 and the mass density (288.15 K, m1 = 3.667) was 1178.12 ± 0.34 kg/m3. The speed of sound (293.15 K, m1 = 0.1716) was 1494.4 ± 1.2 m/s, the speed of sound (293.15 K, m1 = 0.2312) was 1498.5 ± 1.2 m/s and the speed of sound (293.15 K, m1 = 0.4825) was 1515.3 ± 1.2 m/s. For the same compound, the speed of sound (293.15 K, m1 = 0.6161) was 1524.1 ± 1.2 m/s, the speed of sound (293.15 K, m1 = 0.9787) was 1547.5 ± 1.3 m/s and the speed of sound (293.15 K, m1 = 1.386) was 1572.9 ± 1.3 m/s. The speed of sound (293.15 K, m1 = 1.851) was 1599.1 ± 1.3 m/s, the speed of sound (293.15 K, m1 = 2.379) was 1630.8 ± 1.3 m/s and the speed of sound (293.15 K, m1 = 2.981) was 1662.7 ± 1.3 m/s. The speed of sound (293.15 K, m1 = 3.667) was 1696.5 ± 1.4 m/s, the mass density (293.15 K, m1 = 0.2312) was 1013.99 ± 0.3 kg/m3 and the mass density (293.15 K, m1 = 0.292) was 1018 ± 0.3 kg/m3. It also gave a mass density (293.15 K, m1 = 0.4825) of 1030.21 ± 0.3 kg/m3, a mass density (293.15 K, m1 = 0.6161) of 1038.45 ± 0.3 kg/m3 and a mass density (293.15 K, m1 = 0.9787) of 1059.67 ± 0.31 kg/m3. The mass density (293.15 K, m1 = 1.386) was 1081.5 ± 0.31 kg/m3, the mass density (293.15 K, m1 = 1.851) was 1104.26 ± 0.32 kg/m3 and the mass density (293.15 K, m1 = 2.379) was 1127.76 ± 0.32 kg/m3. The mass density (293.15 K, m1 = 2.981) was 1151.66 ± 0.33 kg/m3, the mass density (293.15 K, m1 = 3.667) was 1175.94 ± 0.34 kg/m3 and the speed of sound (298.15 K, m1 = 0.1716) was 1508 ± 1.2 m/s. It also gave a speed of sound (298.15 K, m1 = 0.2312) of 1511.8 ± 1.2 m/s, a speed of sound (298.15 K, m1 = 0.292) of 1515.7 ± 1.2 m/s and a speed of sound (298.15 K, m1 = 0.6161) of 1536.2 ± 1.2 m/s. For the same compound, the speed of sound (298.15 K, m1 = 0.9787) was 1558.4 ± 1.3 m/s, the speed of sound (298.15 K, m1 = 1.386) was 1582.5 ± 1.3 m/s and the speed of sound (298.15 K, m1 = 1.851) was 1607.5 ± 1.3 m/s. The speed of sound (298.15 K, m1 = 2.379) was 1637.6 ± 1.3 m/s, the speed of sound (298.15 K, m1 = 2.981) was 1668 ± 1.3 m/s and the speed of sound (298.15 K, m1 = 3.667) was 1700.1 ± 1.4 m/s. It also gave a mass density (298.15 K, m1 = 0.1716) of 1008.73 ± 0.3 kg/m3, a mass density (298.15 K, m1 = 0.2312) of 1012.69 ± 0.3 kg/m3 and a mass density (298.15 K, m1 = 0.292) of 1016.66 ± 0.3 kg/m3. The mass density (298.15 K, m1 = 0.4825) was 1028.76 ± 0.3 kg/m3, the mass density (298.15 K, m1 = 0.6161) was 1036.93 ± 0.3 kg/m3 and the mass density (298.15 K, m1 = 0.9787) was 1057.92 ± 0.31 kg/m3. It also gave a mass density (298.15 K, m1 = 1.386) of 1079.62 ± 0.31 kg/m3, a mass density (298.15 K, m1 = 1.851) of 1102.2 ± 0.32 kg/m3 and a mass density (298.15 K, m1 = 2.379) of 1125.52 ± 0.32 kg/m3. The mass density (298.15 K, m1 = 2.981) was 1149.24 ± 0.33 kg/m3, the mass density (298.15 K, m1 = 3.667) was 1173.34 ± 0.34 kg/m3 and the speed of sound (303.15 K, m1 = 0.1716) was 1519.8 ± 1.2 m/s. It also gave a speed of sound (303.15 K, m1 = 0.292) of 1527.1 ± 1.2 m/s, a speed of sound (303.15 K, m1 = 0.6161) of 1546.5 ± 1.2 m/s and a speed of sound (303.15 K, m1 = 0.9787) of 1567.7 ± 1.3 m/s. For the same compound, the speed of sound (303.15 K, m1 = 1.386) was 1590.7 ± 1.3 m/s, the speed of sound (303.15 K, m1 = 1.851) was 1614.3 ± 1.3 m/s and the speed of sound (303.15 K, m1 = 2.379) was 1643 ± 1.3 m/s. It also gave a speed of sound (303.15 K, m1 = 2.981) of 1671.9 ± 1.3 m/s, a speed of sound (303.15 K, m1 = 3.667) of 1702.5 ± 1.4 m/s and a mass density (303.15 K, m1 = 0.292) of 1015.1 ± 0.3 kg/m3. The mass density (303.15 K, m1 = 0.4825) was 1027.1 ± 0.3 kg/m3, the mass density (303.15 K, m1 = 0.6161) was 1035.21 ± 0.3 kg/m3 and the mass density (303.15 K, m1 = 0.9787) was 1056.02 ± 0.31 kg/m3. The mass density (303.15 K, m1 = 1.386) was 1077.55 ± 0.31 kg/m3, the mass density (303.15 K, m1 = 1.851) was 1099.94 ± 0.32 kg/m3 and the mass density (303.15 K, m1 = 2.379) was 1123.09 ± 0.32 kg/m3. The mass density (303.15 K, m1 = 2.981) was 1146.65 ± 0.33 kg/m3, the mass density (303.15 K, m1 = 3.667) was 1170.58 ± 0.34 kg/m3 and the speed of sound (308.15 K, m1 = 0.1716) was 1529.9 ± 1.2 m/s. The speed of sound (308.15 K, m1 = 0.2312) was 1533.4 ± 1.2 m/s, the speed of sound (308.15 K, m1 = 0.292) was 1536.9 ± 1.2 m/s and the speed of sound (308.15 K, m1 = 0.4825) was 1547.8 ± 1.2 m/s. For the same compound, the speed of sound (308.15 K, m1 = 0.6161) was 1555.3 ± 1.2 m/s, the speed of sound (308.15 K, m1 = 0.9787) was 1575.5 ± 1.3 m/s and the speed of sound (308.15 K, m1 = 1.386) was 1597.3 ± 1.3 m/s. The speed of sound (308.15 K, m1 = 1.851) was 1619.9 ± 1.3 m/s, the speed of sound (308.15 K, m1 = 2.379) was 1647.2 ± 1.3 m/s and the speed of sound (308.15 K, m1 = 2.981) was 1674.7 ± 1.3 m/s. The speed of sound (308.15 K, m1 = 3.667) was 1703.9 ± 1.4 m/s, the mass density (308.15 K, m1 = 0.2312) was 1009.43 ± 0.3 kg/m3 and the mass density (308.15 K, m1 = 0.292) was 1013.34 ± 0.3 kg/m3. The mass density (308.15 K, m1 = 0.4825) was 1025.25 ± 0.3 kg/m3, the mass density (308.15 K, m1 = 0.6161) was 1033.29 ± 0.3 kg/m3 and the mass density (308.15 K, m1 = 0.9787) was 1053.95 ± 0.31 kg/m3. The mass density (308.15 K, m1 = 1.386) was 1075.32 ± 0.31 kg/m3, the mass density (308.15 K, m1 = 1.851) was 1097.55 ± 0.32 kg/m3 and the mass density (308.15 K, m1 = 2.379) was 1120.53 ± 0.32 kg/m3. The mass density (308.15 K, m1 = 2.981) was 1143.92 ± 0.33 kg/m3 and the mass density (308.15 K, m1 = 3.667) was 1167.69 ± 0.34 kg/m3.

From the NIST ThermoML archive (doi:10.1021/acs.jced.6b00232)
